In publication PMC12059162 (Scientific Reports, 2025):
Marks after values point to notes of the source that are not given here.

Key:
TRAIL = experiment: qPCR apoptotic gene expression in PANC-1 cells; conditions: PANC-1, 25 µM
HSP60 = experiment: Human Apoptosis Array in PANC-1 cells; conditions: PANC-1, 0.5 µM, 72 h
cIAP-1 = experiment: Human Apoptosis Array in PANC-1 cells; conditions: PANC-1, 0.5 µM, 72 h
PANC-1 cells [1] = experiment: Holographic microscopy morphometry (HoloMonitor M4); type: cell-based, human; conditions: 72 h
Method: To follow the morphometric changes, a holographic transmission microscope (HoloMonitor M4; Phase Holographic Imaging AB, Lund, Sweden) was used, which uses a laser to produce 3D images of the cells[51],[52]. This […] imaging technique allows us to monitor cell morphological changes in real-time. First, the cells were seeded at a concentration of 3.5 × 10^5 cells/flask/4000 µL cell culture medium. […] At least 5 images were taken from each culture dish, taking care to assess different fields of view. These images were evaluated using the microscope software (Hstudio M4). We assessed the average area and the average optical thickness of the cells.

COLO-205 cells = experiment: alamarBlue cell viability; conditions: Homo sapiens, COLO 205, 72 h; for viability at 0.5 µM / viability at 10 µM / viability at 25 µM: read-out: Viability (%) after 72-h treatment
PANC-1 cells [2] = experiment: Cell cycle analysis (PI, flow cytometry); conditions: for Effect on cell cycle: PANC-1, 0.5 µM, 48 h; for Increase in cell number in the G2/M phase: PANC-1, 10 and 25 µM, 72 h
[3] = alamarBlue cell viability, healthy cells; conditions: human, NHDF cells
A2058 cells = experiment: alamarBlue cell viability; conditions: Homo sapiens, A2058, 72 h; for IC50: read-out: IC50 values (μM) 72 hours; for viability at 0.5 µM / viability at 10 µM / viability at 25 µM: read-out: Viability (%) after 72-h treatment
phospho-p53 (S46) = experiment: Human Apoptosis Array in PANC-1 cells; conditions: PANC-1, 0.5 µM, 72 h
PANC-1 cells [4] = experiment: xCELLigence SP impedimetric cell viability; conditions: for IC50 / viability at 0.5 µM / viability at 10 µM / viability at 25 µM: Homo sapiens, PANC-1, 72 h; for IC50: read-out: IC50 values (μM) 72 hours; for viability at 0.5 µM: read-out: Viability (%) after 72-h treatment, PANC-1, 0.5 μM, 72 h, mean ± SD (n = 3); for viability at 10 µM: read-out: Viability (%) after 72-h treatment, PANC-1, 10 μM, 72 h, mean ± SD (n = 3); for viability at 25 µM: read-out: Viability (%) after 72-h treatment, PANC-1, 25 μM, 72 h, mean ± SD (n = 3)
p53 = experiment: qPCR apoptotic gene expression in PANC-1 cells; conditions: PANC-1, 25 µM, normalised to DMSO control
phospho-p53 (S15) = experiment: Human Apoptosis Array in PANC-1 cells; conditions: PANC-1, 0.5 µM, 72 h
MIA PaCa-2 cells [5] = experiment: Cell cycle analysis (PI, flow cytometry); conditions: MIA PaCa-2, 0.5 µM; for Effect on cell cycle: 48 h
MIA PaCa-2 cells [6] = experiment: alamarBlue cell viability; conditions: Homo sapiens, MIA PaCa-2, 72 h; for viability at 0.5 µM / viability at 10 µM / viability at 25 µM: read-out: Viability (%) after 72-h treatment
PANC-1 cells [7] = experiment: Annexin-V/7AAD early and late apoptosis flow cytometry; type: cell-based, human; conditions: PANC-1, 0.5 µM, 72 h; for Ratio of late apoptotic cells: control 0.9%; for Ratio of AnnexinV+ and 7AAD- (early apoptotic) cells: control 21.1%
Method: For apoptosis measurements, Annexin-V positive/7AAD (7-Aminoactinomycin D) negative, early apoptotic and Annexin-V/ 7AAD double positive, late apoptotic cells were differentiated using a BD FACSCalibur (BD FACSCalibur, Becton-Dickinson, San Jose, CA, USA) flow cytometer[49],[50]. […] After 24, 48, and 72 h treatment, cells were harvested with 300 µL TrypLE (Sigma Ltd. St. Louis, MO, USA). Fresh cell culture medium was then added to stop the effect of TrypLE and the harvested cells were centrifuged for 5 min (300 g). Then, the supernatant was removed, and cells were resuspended in 300 µL of Annexin binding buffer (Sony Biotechnology, Weybridge, UK). For labelling, 3–3 µL of Annexin-V-FITC (Sony Biotechnology, Weybridge, UK) and 7AAD (Sony Biotechnology, Weybridge, UK) were added, followed by 10 min incubation at room temperature in the dark. For flow cytometric analysis (BD FACSCalibur, Becton–Dickinson, San Jose, CA, USA), a minimum of 10^4 cells/sample was measured. Annexin-V was detected using the FL-1 channel (530/30), and 7AAD was detected using the FL-3 channel (670 LP). In each treatment group, 3 parallel samples were analysed. The results were evaluated using Flowing Software 2.5.1 (Turku Centre of Biotechnology, Turku, Finland).

pro-caspase-3 = experiment: Human Apoptosis Array in PANC-1 cells; conditions: PANC-1, 0.5 µM, 72 h
DR4 = experiment: Human Apoptosis Array in PANC-1 cells; conditions: PANC-1, 0.5 µM, 72 h
DR5 [8] = experiment: qPCR apoptotic gene expression in PANC-1 cells; conditions: PANC-1, 25 µM
EBC-1 cells = experiment: alamarBlue cell viability; conditions: for viability at 0.5 µM: read-out: Viability (%) after 72-h treatment, EBC-1, 0.5 μM, 72 h, mean ± SD (n = 3); for viability at 10 µM: read-out: Viability (%) after 72-h treatment, EBC-1, 10 μM, 72 h, mean ± SD (n = 3); for viability at 25 µM: read-out: Viability (%) after 72-h treatment, EBC-1, 25 μM, 72 h, mean ± SD (n = 3)
[9] = alamarBlue cell viability, cardiotoxicity; conditions: mouse, HL-1 cardiomyocytes
cytochrome-c = experiment: Human Apoptosis Array in PANC-1 cells; conditions: PANC-1, 0.5 µM, 72 h
cleaved caspase-3 = experiment: Human Apoptosis Array in PANC-1 cells; conditions: PANC-1, 0.5 µM, 72 h
DR5 [10] = experiment: Human Apoptosis Array in PANC-1 cells; conditions: PANC-1, 0.5 µM, 72 h
[11] = read-out: IC50 values (μM) 72 hours

O=C1C2=C(CCN(Cc3ccccc3)C2)N2CCN=C2N1Cc1ccc(F)cc1 [TBP-134]
TRAIL induction (mRNA) (TRAIL; any of the time points (3-48 h)): not detected
HSP60 protein level (HSP60): significant increase
cIAP-1 protein level (cIAP-1): undetectable
Average cell area (PANC-1 cells [1]; PANC-1, 25 µM): 376 µm^2
Average cell area, fold decrease vs DMSO (PANC-1 cells [1]; PANC-1, 25 µM): 1.7 fold
IC50 (COLO-205 cells; [11]): 0.25 µM
viability at 0.5 µM (COLO-205 cells): 45.5 ± 1.3%
viability at 10 µM (COLO-205 cells): 48.8 ± 1.6%
viability at 25 µM (COLO-205 cells): 54.3 ± 0.6%
Effect on cell cycle (PANC-1 cells [2]): strong G2/M phase arrest
Increase in cell number in the G2/M phase (PANC-1 cells [2]): 2.2 fold
viability at 72 h, 0.5 µM [3]: 61.5 ± 0.5%
viability at 72 h, 10 µM [3]: 46.2 ± 3.4%
viability at 72 h, 25 µM [3]: 48.3 ± 1.2%
IC50 (A2058 cells): 0.34 µM
viability at 0.5 µM (A2058 cells): 51.4 ± 2.4%
viability at 10 µM (A2058 cells): 47.7 ± 3.5%
viability at 25 µM (A2058 cells): 44.7 ± 2.8%
phospho-p53 (S46) protein level (phospho-p53 (S46)): decrease
IC50 (PANC-1 cells [4]): 0.35 µM
viability at 0.5 µM (PANC-1 cells [4]): 13.4%
viability at 10 µM (PANC-1 cells [4]): 7.4 ± 0.3%
viability at 25 µM (PANC-1 cells [4]): 6.1 ± 0.9%
Viability (%) after 72-h treatment (PANC-1 cells [4]; PANC-1, 0.5 μM, 72 h, mean ± SD (n = 3), 0.5 µM): 13.2 ± 1.4^z %
p53 mRNA expression (p53; 48 h): 3.7 fold
phospho-p53 (S15) protein level (phospho-p53 (S15)): decrease
Effect on cell cycle (MIA PaCa-2 cells [5]): strong G2/M phase arrest
subG1 phase (percentage of cells) (MIA PaCa-2 cells [5]; 72 h, control 5.6%): 20.8%
IC50 (MIA PaCa-2 cells [6]; [11]): 0.67 µM
viability at 0.5 µM (MIA PaCa-2 cells [6]): 48.9 ± 2.9%
viability at 10 µM (MIA PaCa-2 cells [6]): 65 ± 4.9%
viability at 25 µM (MIA PaCa-2 cells [6]): 59 ± 5.5%
Early apoptotic cells, fold increase (PANC-1 cells [7]): 2.1 fold
Late apoptotic cells, fold increase (PANC-1 cells [7]): 4.2 fold
Ratio of late apoptotic cells (PANC-1 cells [7]): 3.8%
Ratio of AnnexinV+ and 7AAD- (early apoptotic) cells (PANC-1 cells [7]): 43.8%
pro-caspase-3 protein level (pro-caspase-3): decrease
DR4 protein level (DR4): significant increase
DR5 mRNA expression (DR5 [8]; 12 h, normalised to DMSO control): 2.3 fold
Viability (%) after 72-h treatment (EBC-1 cells; EBC-1, 0.5 μM, 72 h, mean ± SD (n = 3), 0.5 µM): 52.3 ± 1.5^z %
viability at 0.5 µM (EBC-1 cells; Homo sapiens, EBC-1, 72 h): 52.2%
viability at 10 µM (EBC-1 cells; Homo sapiens, EBC-1, 72 h): 51.7 ± 0.7%
viability at 25 µM (EBC-1 cells; Homo sapiens, EBC-1, 72 h): 50.5 ± 2%
viability at 72 h, 0.5 µM [9]: 89.9 ± 5.2%
viability at 72 h, 10 µM [9]: 88.4 ± 5%
viability at 72 h, 25 µM [9]: 82 ± 2.3%

O=C1C2=C(CCN(Cc3ccccc3)C2)N2CCN=C2N1Cc1cccc(F)c1 [TBP-135]
TRAIL mRNA expression (TRAIL; 3 h, normalised to DMSO control): 2.4 fold
HSP60 protein level (HSP60): significantly increased
cIAP-1 protein level (cIAP-1): significantly increased
cytochrome-c protein level (cytochrome-c): significantly decreased
cleaved caspase-3 protein level (cleaved caspase-3): significantly increased
Average cell area, fold decrease vs DMSO (PANC-1 cells [1]; PANC-1, 0.5 µM): 1.9 fold
Average optical thickness, fold increase vs DMSO (PANC-1 cells [1]; PANC-1, 0.5 µM): 4.1 fold
Average optical thickness (PANC-1 cells [1]; PANC-1, 0.5 µM, DMSO 1.45 μm): 5.9 μm
Average cell area (PANC-1 cells [1]; PANC-1, 0.5 µM, DMSO 630 µm^2): 338.5 µm^2
viability at 0.5 µM (COLO-205 cells): 74.7 ± 0.6%
viability at 10 µM (COLO-205 cells): 52.6 ± 4.1%
viability at 25 µM (COLO-205 cells): 54.2 ± 3.2%
Effect on cell cycle (PANC-1 cells [2]): G1 phase block
Increase in cell number in the G2/M phase (PANC-1 cells [2]): 2.2 fold
viability at 72 h, 0.37 µM [3]: 111 ± 2.9%
viability at 72 h, 8.6 µM [3]: 65.9 ± 1.8%
viability at 72 h, 25 µM [3]: 71.4 ± 12.3%
IC50 (A2058 cells): 1.75 µM
viability at 0.5 µM (A2058 cells): 74.9 ± 1.1%
viability at 10 µM (A2058 cells): 47 ± 4.7%
viability at 25 µM (A2058 cells): 46.8 ± 2.9%
phospho-p53 (S46) protein level (phospho-p53 (S46)): significantly increased
IC50 (PANC-1 cells [4]): 1.8 µM
viability at 0.5 µM (PANC-1 cells [4]): 106 ± 2.4%
viability at 10 µM (PANC-1 cells [4]): 8.8 ± 0.1%
viability at 25 µM (PANC-1 cells [4]): 9.2 ± 4.6%
p53 mRNA expression (p53; 24 h): 2.9 fold
phospho-p53 (S15) protein level (phospho-p53 (S15)): significantly increased
Effect on cell cycle (MIA PaCa-2 cells [5]): did not affect
viability at 0.5 µM (MIA PaCa-2 cells [6]): 63.5 ± 2.6%
viability at 10 µM (MIA PaCa-2 cells [6]): 62.7 ± 7.8%
viability at 25 µM (MIA PaCa-2 cells [6]): 65.5 ± 7.9%
Early apoptotic cells, fold increase (PANC-1 cells [7]): 2.5 fold
Late apoptotic cells, fold increase (PANC-1 cells [7]): 3.5 fold
Ratio of late apoptotic cells (PANC-1 cells [7]): 3.2%
Ratio of AnnexinV+ and 7AAD- (early apoptotic) cells (PANC-1 cells [7]): 53.5%
pro-caspase-3 protein level (pro-caspase-3): significantly increased
DR4 protein level (DR4): significantly increased
DR5 mRNA expression (DR5 [8]; 3 h): significantly upregulated
DR5 mRNA expression (DR5 [8]; 24 h, normalised to DMSO control): 5.9 fold
IC50 (EBC-1 cells; Homo sapiens, EBC-1, 72 h, read-out: IC50 values (μM) 72 hours): 2.5 µM
viability at 0.5 µM (EBC-1 cells; Homo sapiens, EBC-1, 72 h): 66.6 ± 4.1%
viability at 10 µM (EBC-1 cells; Homo sapiens, EBC-1, 72 h): 71.8 ± 31.1%
viability at 25 µM (EBC-1 cells; Homo sapiens, EBC-1, 72 h): 48 ± 4%
DR5 protein level (DR5 [10]): significantly increased
viability at 72 h, 0.5 µM [9]: 98.8 ± 1.5%
viability at 72 h, 10 µM [9]: 86.8 ± 3.2%
viability at 72 h, 25 µM [9]: 88.3 ± 2.8%
